Assay results reported in patent publication US20250214942A1, “INHIBITORS OF RECEPTOR INTERACTING PROTEIN KINASE I FOR THE TREATMENT OF DISEASE” (Board of Regents, The University of Texas System, priority 2019, published 2025).

biological target: RIPK1 (Homo sapiens (Human), UniProt Q13546); experiment: ADP-Glo kinase assay (RIPK1 activity, conversion of ATP to ADP); assay type: biochemical; conditions: 5 nM RIPK1, 50 μM ATP, 6 h reaction; footnote symbol (a); read-out: RIPK1 Enzyme Avg IC50
Experimental: In order to measure RIPK1 activity the ADP-Glo kinase assay (Promega, Catalog #V7002) was used to measure the conversion of ATP to ADP. This enzymatic assay was performed in a 384-well white, Optiplate (Perkin Elmer, Catalog #6007299) with assay buffer consisting of 50 mM HEPES pH 7.5 (Gibco, Catalog #15630-080), 50 mM NaCl (Teknova, Catalog #S0252), 30 mM MgCl2 (Ambion, Catalog #AM9530G), 1 mM DTT (Santa Cruz Biotechnology, Catalog #sc-29089), 0.05% BSA (Sigma, Catalog #A3059-50G) and 0.02% CHAPS (Sigma, Catalog #C5070-5G). Stock solutions of the test compounds were prepared in 100% DMSO (Sigma, Catalog #D2650) and serially diluted 1:3 using 100% DMSO. Compounds were additionally diluted 1:40 in assay buffer, and 2 μL/well were transferred to the assay plate. 4 μL/well (final concentration of 5 nM) of RIPK1 protein (SignalChem, Catalog #R07-1IG-05) diluted in assay buffer and added to the assay plate followed by a 10 minute preincutation at rt. 4 μL/well of ATP (Promega, Catalog #V7002) (final concentration of 50 μM) diluted in assay buffer were then added to the assay plate followed by a 6 h reaction time. Final concentrations of RIPK1 and ATP refer to a 10 μL volume. Luminescence was measured using a BioTek Synergy™ NEO plate reader. IC50 values were calculated using a four-parameter logistic curve fit using Genedata Screener software.

Sequence of RIPK1 (Q13546 1-327): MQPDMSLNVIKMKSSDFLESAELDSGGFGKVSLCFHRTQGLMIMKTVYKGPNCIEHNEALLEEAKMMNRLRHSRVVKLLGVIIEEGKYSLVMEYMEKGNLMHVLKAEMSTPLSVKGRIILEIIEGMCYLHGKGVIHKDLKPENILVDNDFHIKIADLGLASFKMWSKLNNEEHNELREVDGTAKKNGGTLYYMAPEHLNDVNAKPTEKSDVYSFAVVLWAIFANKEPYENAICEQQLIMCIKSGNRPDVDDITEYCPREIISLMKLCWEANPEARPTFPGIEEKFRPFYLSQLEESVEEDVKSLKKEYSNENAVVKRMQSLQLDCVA

Row | IC50 | Compound
1 | > 50000 nM | Cc1cccc(C2CCCN2C(=O)C23CC(N4C(=O)CCC4=O)(C2)C3)c1 (stereo not drawn) [Example 25, 1-(3-(2-(m-Tolyl)pyrrolidine-1-carbonyl)bicyclo[1.1.1]pentan-1-yl)pyrrolidine-2,5-dione]
2 | > 50000 nM | COC(=O)C12CC(C(=O)N3CC[C@@H](Oc4cc(F)ccc4F)C3)(C1)C2 [Example 37, Methyl (R)-3-(3-(2,5-difluorophenoxy)pyrrolidine-1-carbonyl)-bicyclo[1.1.1]pentane-1-carboxylate]
3 | > 50000 nM | O=C(N1CC[C@@H](Oc2cc(F)ccc2F)C1)C12CC(CO)(C1)C2 [Example 38, (R)-(3-(2,5-Difluorophenoxy)pyrrolidin-1-yl)(3-(hydroxymethyl)-bicyclo[1.1.1]pentan-1-yl)methanone]
4 | > 50000 nM | N#Cc1cc(OCC23CC(C(=O)N4CC[C@@H](Oc5cc(F)ccc5F)C4)(C2)C3)ncn1 [Example 39, (R)-6-((3-(3-(2,5-difluorophenoxy)pyrrolidine-1-carbonyl)-bicyclo[1.1.1]pentan-1-yl)methoxy)pyrimidine-4-carbonitrile]

same assay, conditions: 5 nM RIPK1, 50 μM ATP, 6 h reaction; read-out: RIPK1 Enzyme Avg IC50

Row | Compound | IC50
5 | 1-((3-(5-(3,5-difluorophenyl)-4,5-dihydro-1H-pyrazole-1-carbonyl)bicyclo[1.1.1]-pentan-1-yl)methyl)-1H-pyrazole-3-carbonitrile and 1-((3-(5-(3,5-difluorophenyl)-4,5-dihydro-1H-pyrazole-1-carbonyl)bicyclo[1.1.1]-pentan-1-yl)methyl)-1H-pyrazole-5-carbonitrile [Example 189] | 27 nM
6 | COC(=O)C12CC(C(=O)N3N=CCC3c3cc(F)cc(F)c3)(C1)C2 (stereo not drawn) [Example 1, Methyl 3-(5-(3,5-difluorophenyl)-4,5-dihydro-1H-pyrazole-1-carbonyl)bicyclo[1.1.1]pentane-1-carboxylate] | 40 nM
7 | O=C(O)C12CC(C(=O)N3N=CCC3c3cc(F)cc(F)c3)(C1)C2 (stereo not drawn) [Example 2, 3-(5-(3,5-Difluorophenyl)-4,5-dihydro-1H-pyrazole-1-carbonyl)-bicyclo[1.1.1]pentane-1-carboxylic acid] | 21200 nM
8 | CN(C)C(=O)C12CC(C(=O)N3N=CCC3c3cc(F)cc(F)c3)(C1)C2 (stereo not drawn) [Example 10, 3-(5-(3,5-Difluorophenyl)-4,5-dihydro-1H-pyrazole-1-carbonyl)-N,N-dimethylbicyclo[1.1.1]pentane-1-carboxamide] | 2910 nM
9 | O=C(N1N=CCC1c1cc(F)cc(F)c1)C12CC(CN3CCOCC3)(C1)C2 (stereo not drawn) [Example 13, (5-(3,5-Difluorophenyl)-4,5-dihydro-1H-pyrazol-1-yl)(3-(morpholinomethyl)bicyclo[1.1.1]pentan-1-yl)methanone] | 1510 nM
10 | O=C(N1N=CCC1c1cc(F)cc(F)c1)C12CC(Cn3ncc4c(F)cncc43)(C1)C2 (stereo not drawn) [Example 15, (5-(3,5-Difluorophenyl)-4,5-dihydro-1H-pyrazol-1-yl)(3-((4-fluoro-1H-pyrazolo[3,4-c]-pyridin-1-yl)methyl)bicyclo[1.1.1]pentan-1-yl)methanone] | 22 nM
11 | CP(C)(=O)c1cc(OCC23CC(C(=O)N4N=CCC4c4cc(F)cc(F)c4)(C2)C3)ncn1 (stereo not drawn) [Example 17, (5-(3,5-Difluorophenyl)-4,5-dihydro-1H-pyrazol-1-yl)(3-(((6-(dimethylphosphoryl)pyrimidin-4-yl)oxy)methyl)bicyclo[1.1.1]pentan-1-yl)methanone] | 570 nM
12 | O=C(N1N=CCC1c1cc(F)cc(F)c1)C12CC(Cc3nnn[nH]3)(C1)C2 (stereo not drawn) [Example 19, (3-((1H-tetrazol-5-yl)methyl)bicyclo[1.1.1]pentan-1-yl)(5-(3,5-difluorophenyl)-4,5-dihydro-1H-pyrazol-1-yl)methanone] | 363 nM
13 | Cc1nnc(CC23CC(C(=O)N4N=CCC4c4cc(F)cc(F)c4)(C2)C3)o1 (stereo not drawn) [Example 20, (5-(3,5-Difluorophenyl)-4,5-dihydro-1H-pyrazol-1-yl)(3-((5-methyl-1,3,4-oxadiazol-2-yl)methyl)bicyclo[1.1.1]pentan-1-yl)methanone] | 1110 nM
14 | O=C(N1CC(F)CC1c1cccc(F)c1)C12CC(CO)(C1)C2 (stereo not drawn) [Example 24, (4-Fluoro-2-(3-fluorophenyl)pyrrolidin-1-yl)(3-(hydroxymethyl)bicyclo[1.1.1]pentan-1-yl)methanone] | 38800 nM
15 | O=C(N1N=CCC1c1cc(F)cc(F)c1)C12CC(CN3C(=O)C(F)(F)c4ccccc43)(C1)C2 (stereo not drawn) [Example 32, 1-((3-(5-(3,5-Difluorophenyl)-4,5-dihydro-1H-pyrazole-1-carbonyl)-bicyclo[1.1.1]pentan-1-yl)methyl)-3,3-difluoroindolin-2-one] | 196 nM
16 | N#Cc1cnn(CC23CC(C(=O)N4CC(F)CC4c4cccc(F)c4)(C2)C3)c1 (stereo not drawn) [Example 33, 1-((3-(4-Fluoro-2-(3-fluorophenyl)pyrrolidine-1-carbonyl)-bicyclo[1.1.1]pentan-1-yl)methyl)-1H-pyrazole-4-carbonitrile] | 466 nM
17 | COC(=O)C12CC(C(=O)N3CC(F)CC3c3cccc(F)c3)(C1)C2 (stereo not drawn) [Example 34, Methyl 3-(4-fluoro-2-(3-fluorophenyl)pyrrolidine-1-carbonyl)-bicyclo[1.1.1]pentane-1-carboxylate] | 1070 nM

Next, values leading:

Row | IC50 | Compound
18 | 4630 nM | COCC12CC(C(=O)N3CC(F)CC3c3cccc(F)c3)(C1)C2 (stereo not drawn) [Example 35, (4-Fluoro-2-(3-fluorophenyl)pyrrolidin-1-yl)(3-(methoxymethyl)-bicyclo[1.1.1]pentan-1-yl)methanone]
19 | 19300 nM | N#Cc1ccn(CC23CC(C(=O)N4CC(F)CC4c4cccc(F)c4)(C2)C3)c(=O)c1 (stereo not drawn) [Example 36, 1-((3-(4-Fluoro-2-(3-fluorophenyl)pyrrolidine-1-carbonyl)bicyclo[1.1.1]pentan-1-yl)methyl)-2-oxo-1,2-dihydropyridine-4-carbonitrile]
20 | 4450 nM | O=C(N1CC(F)CC1c1cccc(F)c1)C12CC(C(O)c3ccccc3)(C1)C2 (stereo not drawn) [Example 40, (4-Fluoro-2-(3-fluorophenyl)pyrrolidin-1-yl)(3-(hydroxy(phenyl)methyl)-bicyclo[1.1.1]pentan-1-yl)methanone]
21 | 38 nM | O=C(N1N=CCC1c1ccccc1)C12CC(C1)C2 (stereo not drawn) [Example 44, Bicyclo[1.1.1]pentan-1-yl(5-phenyl-4,5-dihydro-1H-pyrazol-1-yl)methanone]
22 | 8590 nM | O=C(N1N=CCC1c1ccccc1)C12CC(O)(C1)C2 (stereo not drawn) [Example 45, (3-Hydroxybicyclo[1.1.1]pentan-1-yl)(5-phenyl-4,5-dihydro-1H-pyrazol-1-yl)methanone]
23 | 157 nM | CCOC12CC(C(=O)N3N=CCC3c3ccccc3)(C1)C2 (stereo not drawn) [Example 46, (3-Ethoxybicyclo[1.1.1]pentan-1-yl)(5-phenyl-4,5-dihydro-1H-pyrazol-1-yl)methanone]
24 | 24 nM | N#Cc1ccc2c(cnn2CC23CC(C(=O)N4N=CCC4c4cc(F)ccc4F)(C2)C3)c1 (stereo not drawn) [Example 53, 1-((3-(5-(2,5-difluorophenyl)-4,5-dihydro-1H-pyrazole-1-carbonyl)-bicyclo[1.1.1]pentan-1-yl)methyl)-1H-indazole-5-carbonitrile]
25 | 16 nM | N#Cc1ccc2cnn(CC34CC(C(=O)N5N=CCC5c5cc(F)cc(F)c5)(C3)C4)c2c1 (stereo not drawn) [Example 66, 1-((3-(5-(3,5-difluorophenyl)-4,5-dihydro-1H-pyrazole-1-carbonyl)bicyclo[1.1.1]-pentan-1-yl)methyl)-1H-indazole-6-carbonitrile]
26 | 323 nM | Cc1cc(C)n(CC23CC(C(=O)N4N=CCC4c4cc(F)cc(F)c4)(C2)C3)n1 (stereo not drawn) [Example 75, (5-(3,5-difluorophenyl)-4,5-dihydro-1H-pyrazol-1-yl)(3-((3,5-dimethyl-1H-pyrazol-1-yl)methyl)bicyclo[1.1.1]-pentan-1-yl)methanone]
27 | 5390 nM | O=C(Nc1cc(Cl)ncn1)C12CC(C(=O)N3N=CCC3c3cc(F)cc(F)c3)(C1)C2 (stereo not drawn) [Example 76, N-(6-chloropyrimidin-4-yl)-3-(5-(3,5-difluorophenyl)-4,5-dihydro-1H-pyrazole-1-carbonyl)bicyclo[1.1.1]-pentane-1-carboxamide]
28 | 7110 nM | N#Cc1cccc(NC(=O)C23CC(C(=O)N4N=CCC4c4cc(F)cc(F)c4)(C2)C3)c1 (stereo not drawn) [Example 77, N-(3-cyanophenyl)-3-(5-(3,5-difluorophenyl)-4,5-dihydro-1H-pyrazole-1-carbonyl)-bicyclo[1.1.1]pentane-1-carboxamide]
29 | 13000 nM | CNC(=O)C12CC(C(=O)N3N=CCC3c3cc(F)cc(F)c3)(C1)C2 (stereo not drawn) [Example 78, 3-(5-(3,5-difluorophenyl)-4,5-dihydro-1H-pyrazole-1-carbonyl)-N-methylbicyclo-[1.1.1]pentane-1-carboxamide]
30 | 425 nM | O=C(N1N=CCC1c1cc(F)cc(F)c1)C12CC(CN3CC(F)(F)C3)(C1)C2 (stereo not drawn) [Example 79, (3-((3,3-difluoroazetidin-1-yl)methyl)bicyclo[1.1.1]-pentan-1-yl)(5-(3,5-difluoro-phenyl)-4,5-dihydro-1H-pyrazol-1-yl)methanone]
